Data set [1] deals with AMPA/kainate receptors. In words: QNTI (inhibition of quisqualate neurotoxicity) test. In kind it is cell-based, rat. The conditions noted are these: Inhibition of quisqualate neurotoxicity in primer cortical culture. The method, then:
QNTI (inhibition of quisqualate neurotoxicity (test)
The method is based on the phenomenon that the neurotixic effect of quisqualate /i.e. (S)-alpha-amino-3,5-dioxo-1,2,4-oxadiazolidine-2-propanoic acid, an AMPA/kainate agonist/ on the primer telencephalic cell culture of the rat could be inhibited by AMPA/kainate antagonists. The test was performed as described in the literature /Kovács, A. D., Egyed, A.: Protection against non-NMDA receptor-mediated excitotoxicity by GYKI 52466 in mature telencephalic cultures of the rat, Neurobiology, 4, 59-72 (1996)/.

Data set [2] has as its system AMPA/kainate receptors. Briefly: PSI (inhibition of population spike) test in CA1 neurones of hippocampus. The data set is classed as cell-based. The conditions noted are these: non-cumulative IC50, rat hippocampus. Here is the method:
PSI (inhibition of population spike) test
The field potentials (population spike) evoked by electric stimulation of the Shaffer collateral comissural pathway were measured in the CAl neurones of rat hippocampus. The population spike can be inhibited by AMPA/kainate antagonists. The non-cumulative IC50 values are shown in Table I. /Tarnawa, I., Molnár, P., Gaál, L., Andrási, F.: Inhibition of hippocampal field potentials by GYKI 52466 in vitro and in vivo, Acta Physiol. Hung., 79(2), 163-9 (1992)/.

A short description of the next data set: Acute toxicity. The note with it: both sexes, mouse, in vivo. Here is the method: The study was done in NMRI mice of both sexes, weighing 20 to 25 g, with 6 animals in each dose-group. The test compounds were applied at […], and the maximal per os and ip. doses were 500 mg/kg and 300 mg/kg, respectively. The cumulative lethality was recorded on day 7. The animals were kept under standard laboratory conditions.

The subject of data set [3] is male NMRI mice. Briefly: Muscle relaxant effect (inclined screen according to Hoppe). The data set is classed as in vivo. The note with it: ip.; for ED50: Mus musculus, determined at the time of maximal effect; for Muscle relaxant effect duration: time of last reading when the effect was at least 30%. Here is the method: The assay was done according to Hoppe in male NMRI mice weighing 20 to 25 g, with 10 animals in each group /Hoppe, J. O., J. Pharmacol. Exp. Ther., 100, 333 (1950)/. Following the ip. treatment of animals, the number of mice showing muscle weakness were recorded at every 10 minutes in the first hour and at half hour intervals afterwards. The animals falling off the 60° inclined screen within 30 seconds were considered positive. ED50 values of the given compounds were determined at each time. The duration of effect was defined as the time of last reading when the effect was at least 30%.

The test system of data set [4] is male NMRI mice. Briefly: Maximal electroshock test (MES). In kind it is in vivo. The conditions noted are these: Inhibition of maximal electroshock, ip., 30 minutes before shock; for ED50: Mus musculus. Here is the method:
Maximal electroshock test (MES)
Male NMRI mice weighing 20 to 30 g were used for the method of Swinyard et al. /Swinyard, E. A., Brown, W. C. and Goodman, L.S.: Comparative assays of antiepileptic drugs in mice and rats, J. Pharmacol., 106, 319 (1952)//. The animals—10 in each group—were treated ip. either with various doses of the test substance or with vehicle. After 30 minutes, a 50 Hz, 40 mA electroshock was applied for 0.4 s through corneal electrodes. The number of animals that developed tonic extensor convulsion of the hind-limbs was registered, percent inhibition was calculated, and ED50 values were determined by the method of Litchfield and Wilcoxon /Litchfield, J. T., Wilcoxon, F. A.: A simplified method of evaluating dose-effect experiments, J. Pharmacol. Exp. Ther., 96, 99 (1949)/ and summarized in Table IV.
(In general: The maximal electroshock test induces tonic seizures with an electrical stimulus.)

Another data set has as its system male DBA/2j strain mice. In words: Audiogenic seizure (AS) test. The data set is classed as in vivo. The note with it: for ED50: Mus musculus, 0.25 h. Here is the method:
Audiogenic seizure (AS) test
The experiments were carried out by the slightly modified method of De Sarro et al. /De Sarro, G. B., Croucher, M. J. and Meldrum, B. S.: Anticonvulsant action of DS 103-282, Neuropharm., 23, 525 (1984)/. Groups of 8 male DBA/2j strain mice weighing 7 to 14 g were treated ip. with the test substance in 10 ml/kg volume. 15 minutes later, the animals were placed into a covered glass container (30 cm in diameter) and exposed to a 14 kHz 120 dB tone for 60 s at the most. Seizure response was assessed using the following scale: 0=normal behaviour, 1=wild running, 2=clonus, 3=tonic flexor seizure, 4=tonic extensor seizure. The maximum response during the 60 s exposure was recorded for each animal. Lethality was also noted. The ED50 values were determined by the method of Litchfield and Wilcoxon concerning the inhibition of clonic seizures and tonic extensor convulsions.

The test system of data set [5] is male NMRI mice. Briefly: Global ischemia induced by magnesium chloride (gasping time). The data set is classed as in vivo. The note with it: for Effect in % (increase in gasping time): dose 30 mg/kg ip., 30 minutes before magnesium chloride iv.; for ID50 ip.: gasping time, calculated by linear regression. Here is the method: Global Ischemia Induced by Magnesium Chloride
The experiments were carried out as described by Berga et al. /Berga, P., Beckett, P. R., Roberts, D. J., Llenas, J., Massingham, R.: Synergistic interactions between piracetam and dihydroergocristine in some animal models of cerebral hypoxia and ischemia, Arzneim.-Forsch., 36, 1314-1320 (1986)/. Groups of 10 male NMRI mice weighing 20 to 25 g were treated ip. with the test substance in […]. After 30 minutes, saturated aqueous magnesium chloride solution was applied iv. (5 ml/kg) resulting in an immediate cardiac arrest. The elapsed time between the iv. injection and the last gasping was measured (gasping time). The means of the treated groups were expressed as percent of control. Statistical analysis was done by ANOVA followed by DUNCAN test. The dose resulting in 50% descrease in gasping time (ID50) was calculated by linear regression.

“Also recorded” adds a separate entry of the source. Where two headings read alike, the source gives them in different places.

The melting point is the temperature, or range, at which the solid turns liquid. Compound `CC1(C#N)Cc2cc3c(cc2C(c2ccc([N+](=O)[O-])cc2)=NN1)OCO3` (racemic) [Example 58, (±)-8-Cyano-7,8-dihydro-8-methyl-5-(4-nitrophenyl)-9H-1,3-dioxolo/4,5-h//2,3/benzodiazepine] gave a melting point of 162 to 164 °C.

The term IC50 denotes the concentration that inhibits the measured activity by half. Lower therefore signals inhibition by little substance. For orientation: LD50 means the dose expected to kill half of the subjects tested. In general, ED50 refers to the dose that gives a 50% effect, or the effect in half of the subjects. Regarding `CC1(C#N)Cc2cc3c(cc2C(c2ccc([N+](=O)[O-])cc2)=NN1C(=O)CCl)OCO3` (racemic) [Example 73, (±)-8-Cyano-7,8-dihydro-7-chloroacetyl-8-methyl-5-(4-nitrophenyl)-9H-1,3-dioxolo/4,5-h//2,3/benzodiazepine], the IC50 with AMPA/kainate receptors [1] was found to be 7.4 µM; in the data set on AMPA/kainate receptors [2], 6.3 µM. Also, the LD50 at 7 day in the data set “Acute toxicity” (NMRI, ip, 300 mg/kg) is around 300 mg/kg; in the data set “Acute toxicity” (NMRI, po, 500 mg/kg) it was above 500 mg/kg. This compound also displayed an ED50 with male NMRI mice [3] of 22.6 mg/kg. Moreover, the “Muscle relaxant effect duration” value in the data set on male NMRI mice [3] was “substantially longer; also recorded: higher than 4 hr”.

Consider `CC1(C#N)Cc2cc3c(cc2C(c2ccc(N)cc2)=NN1C(=O)CCNCCN1CCOCC1)OCO3` (racemic) [Example 89, (±)-5-(4-Aminophenyl)-8-cyano-7,8-dihydro-8-methyl-7-/3-(2-morpholinoethylamino)-propionyl/-9H-1,3-dioxolo/4,5-h//2,3/-benzodiazepine], for which the IC50 amounted to 5.4 µM in the data set on AMPA/kainate receptors [1] and 3 µM with AMPA/kainate receptors [2]. Besides, the LD50 at 7 day in “Acute toxicity” (NMRI, ip, 300 mg/kg) is around 300 mg/kg; in the data set “Acute toxicity” (NMRI, po, 500 mg/kg), above 500 mg/kg. Moreover, the 50% effective dose (ED50) amounted to 31.3 mg/kg in the data set on male NMRI mice [3]; 2.3 mg/kg in the data set with male NMRI mice [4]; 5.4 mg/kg in the data set with male DBA/2j strain mice (Inhibition of sound induced seizure, clonic seizures, DBA/2j mice, ip., 15 minutes, read-out: AS convulsion clonic ED50); 1.2 mg/kg in the data set with male DBA/2j strain mice (Inhibition of sound induced seizure, tonic extensor convulsions, DBA/2j mice, ip., 15 minutes, read-out: AS convulsion tonic ED50). For the same compound, the “Muscle relaxant effect duration” value with male NMRI mice [3] came out at 1 h. Besides, the “MES ED50” value in the data set with male NMRI mice [4] was “The compound according to Example 89 was significantly more effective at the inhibition of maximal electroshock and sound induced tonic convulsions than the reference compound “A” as shown in Table TV”. In addition, the “AS convulsion tonic ED50” value in the data set with male DBA/2j strain mice (Inhibition of sound induced seizure, tonic extensor convulsions, DBA/2j mice, ip., 15 minutes) is “The compound according to Example 89 was significantly more effective at the inhibition of maximal electroshock and sound induced tonic convulsions than the reference compound “A” as shown in Table TV”. The “Effect in % (increase in gasping time)” value in the data set with male NMRI mice [5] came to 117%. For the same compound, in the data set with male NMRI mice [5], the ID50 ip. is on record as 7 mg/kg.

As for `NC(=O)C1=NN=C(c2ccc(N)cc2)c2cc3c(cc2C1)OCO3` [Example 32, 5-(4-Aminophenyl)-9H-1,3-dioxolo/4,5-h//2,3/benzodiazepine-8-carboxylic amide], the “MES ED50” value in the data set with male NMRI mice [4] stood at 2.5 mg/kg.

Turning to `N#CC1=NN=C(c2ccc(N)cc2)c2cc3c(cc2C1)OCO3` [Example 47, 5-(4-Aminophenyl)-8-cyano-9H-1,3-dioxolo/4,5-h//2,3/benzodiazepine], in the data set on male NMRI mice [5], the “Effect in % (increase in gasping time)” value was determined as 89% and the ID50 ip. is 15 mg/kg.

Turning to `Nc1ccc(C2=NN=C(c3nnn[nH]3)Cc3cc4c(cc32)OCO4)cc1` [Example 48, 5-(4-Aminophenyl)-8-(5-tetrazolyl)-9H-1,3-dioxolo/4,5-h//2,3/benzodiazepine], the melting point is 244 to 246 °C.

With `CC1=NN=C(c2ccc(N)cc2)c2cc3c(cc2C1)OCO3` [“A”, 8-Methyl-5-(4-aminophenyl)-9H-1,3-dioxolo/4,5-h/-/2,3/benzodiazepine, reference compound], the IC50 in the data set with AMPA/kainate receptors [1] worked out at 12 µM; in the data set on AMPA/kainate receptors [2], 9.1 µM. Also, the LD50 at 7 day amounted to 500 mg/kg in the data set “Acute toxicity” (po, NMRI mice, p.o., cumulative lethality on day 7, maximal dose 500 mg/kg, read-out: Appr. LD50 p.o.) and 392 mg/kg in the data set “Acute toxicity” (NMRI mice, ip., cumulative lethality on day 7, maximal dose 300 mg/kg, read-out: Appr- LD50 ip.). Also, the ED50 stood at 24.5 mg/kg in the data set with male NMRI mice [3]; 6.9 mg/kg in the data set with male NMRI mice [4]; 4.3 mg/kg in the data set on male DBA/2j strain mice (ip, read-out: AS convulsion clonic ED50); 3.6 mg/kg in the data set on male DBA/2j strain mice (ip, read-out: AS convulsion tonic ED50). In addition, the “Muscle relaxant effect duration” value in the data set on male NMRI mice [3] amounted to 1 h. The “Effect in % (increase in gasping time)” value in the data set on male NMRI mice [5] came to 55%. For the same compound, in the data set with male NMRI mice [5], the ID50 ip. is reported as 30 mg/kg.
